Measured values as given in patent publication US20050107440A1, “Rosiglitazone edisylates and their use as antidiabetics” (priority 2001, published 2005).

Key:
Format in all cases: physicochemical
[1] = Solubility of the Ethanedisulfonate Form I in water (visual, aliquot addition); details: water added in aliquots 0.25 to 1 ml to approx. 30 mg; product of Example 2
[2] = Solubility of the Ethanedisulfonate Form II in water (visual, confirmed by HPLC assay of a saturated solution); details: water added in aliquots 1 to 1000 ml to approx. 100 mg, product of Example 7
Excerpt: The visual solubility was confirmed by an HPLC assay of a saturated solution.

[3] = Solid state stability of the drug substance (storage 1 month, HPLC assay); details: product of Example 7
Description: The solid state stability of the drug substance was determined by storing approximately 1.0 g of the material in a glass bottle at a) 40° C./75% Relative Humidity (RH), open exposure, for 1 month and b) at 50° C., closed, for 1 month. […] Solubility of the Ethanedisulfonate Form II

Solubility [1] [µg/mL]	Solubility [2] [µg/mL]	Solid state stability: HPLC assay (final content) ([3]; 40° C./75% RH, open exposure) [% initial]	Solid state stability: degradation ([3]; 40° C./75% RH, open exposure)	Solid state stability: HPLC assay (final content) ([3]; 50° C., closed) [% initial]	Solid state stability: degradation ([3]; 50° C., closed)	Structure (SMILES)
4700						CN(CCOc1ccc(CC2SC(=O)NC2=O)cc1)c1ccccn1.O=S(=O)(O)CCS(=O)(=O)O (stereo not drawn) [Ethanedisulfonate Form I, 5-[4-[2-(N-methyl-N-(2-pyridyl)amino)ethoxy]benzyl]thiazolidine-2,4-dione 1,2-ethanedisulfonate Form I]
	4700	98	No significant degradation observed	99	No significant degradation observed	CN(CCOc1ccc(CC2SC(=O)NC2=O)cc1)c1ccccn1.O=S(=O)(O)CCS(=O)(=O)O (stereo not drawn) [Ethanedisulfonate Form II, 5-[4-[2-(N-methyl-N-(2-pyridyl)amino)ethoxy]benzyl]thiazolidine-2,4-dione 1,2-ethanedisulfonate Form II]
